In ChEMBL document CHEMBL1149876, “The berkeleyamides, amides from the acid lake fungus Penicillum rubrum” (J Nat Prod, 2008) one finds Activity and IC50 data, which are given here for 4 molecules.

Experiment [1] has as its target T1, Caspase-1 (Homo sapiens) (UniProt P29466).
T1 sequence (whole entry): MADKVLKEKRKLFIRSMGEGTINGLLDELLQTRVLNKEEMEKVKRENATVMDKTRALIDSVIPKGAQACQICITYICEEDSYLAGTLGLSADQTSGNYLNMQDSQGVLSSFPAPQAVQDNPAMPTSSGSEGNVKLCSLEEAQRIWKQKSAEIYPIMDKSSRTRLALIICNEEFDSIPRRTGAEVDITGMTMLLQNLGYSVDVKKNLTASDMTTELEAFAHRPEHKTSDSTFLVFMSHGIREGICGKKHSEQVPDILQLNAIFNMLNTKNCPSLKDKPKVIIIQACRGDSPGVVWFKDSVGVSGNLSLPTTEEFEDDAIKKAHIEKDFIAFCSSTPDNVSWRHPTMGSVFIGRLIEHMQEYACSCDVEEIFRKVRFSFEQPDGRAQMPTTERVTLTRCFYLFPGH
Description: (§1) Inhibition of caspase 1.

The target of experiment [2] is Stromelysin-1 (Homo sapiens, UniProt P08254). Description: Inhibition of MMP3.
Experiment [3] has as its target T2, Caspase-1 (Homo sapiens, UniProt P29466).
T2 sequence (P29466 whole entry): T1 sequence (whole entry)
Described as §1.

pIC50: −log10 of the molar value. Activity calls are given as the source filed them. No cut-off for these calls is given here.

On to `CC(=O)OC(c1ccccc1)c1cc(=O)c(C(=O)NC(=O)CC(C)C)cn1CCO` (stereo not drawn), for which the outcome in experiment [1] and in experiment [2] was Active.

With `CC(=O)OC(c1ccccc1)c1cc(=O)c(C(=O)NC(=O)CC(C)C)co1` (stereo not drawn), the outcome in experiment [1] and in experiment [2] was Active.

On to `CC(C)C[C@H]1C[C@H]([C@@H](O)CC(=O)Cc2ccccc2)C(=O)N1` [BERKELEYAMIDE A], for which the negative-log IC50 (pIC50) in experiment [3] and in experiment [2] was 6.48 each time.

For the molecule `CC(C)CC1(O)NC(=O)C2(OC(Cc3ccccc3)=CC2=O)C1O` (stereo not drawn) [BERKELEYAMIDE D], the pIC50 in experiment [3] and in experiment [2] was 6.21 each time.

Broadly, the pIC50 is the negative decadic logarithm of the IC50, by convention in mol/L.
